Molecular target: T1, DLK (Homo sapiens, UniProt Q12852)
T1 construct: N-terminally GST-tagged DLK (catalytic domain amino acid 1-520) (Carna Bioscience); GST (N); purchased Carna Bioscience
T1 sequence (Q12852 1-520): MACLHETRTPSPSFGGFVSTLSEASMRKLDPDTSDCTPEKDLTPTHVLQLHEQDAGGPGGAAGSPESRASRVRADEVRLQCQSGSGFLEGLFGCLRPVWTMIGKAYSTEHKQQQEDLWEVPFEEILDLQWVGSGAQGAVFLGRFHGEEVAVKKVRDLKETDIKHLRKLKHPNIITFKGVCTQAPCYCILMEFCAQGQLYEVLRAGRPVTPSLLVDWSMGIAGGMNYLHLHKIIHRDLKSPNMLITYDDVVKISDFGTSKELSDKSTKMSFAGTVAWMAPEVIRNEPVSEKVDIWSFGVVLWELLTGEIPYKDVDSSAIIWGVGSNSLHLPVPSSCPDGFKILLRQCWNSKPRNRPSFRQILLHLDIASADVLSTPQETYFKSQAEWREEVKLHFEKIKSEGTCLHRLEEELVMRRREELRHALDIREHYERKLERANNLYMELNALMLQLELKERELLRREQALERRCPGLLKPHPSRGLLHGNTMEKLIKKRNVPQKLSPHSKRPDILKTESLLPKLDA
Assay: DLK TR-FRET assay
Type: biochemical
Conditions: 5 nM GST-tagged DLK (catalytic domain amino acid 1-520), 40 nM HIS-tagged MKK4 K131M substrate, 30 μM ATP, 60 minutes
Procedure: DLK TR-FRET assay: DLK kinase reactions (20 μL) containing 5 nM N-terminally GST-tagged DLK (catalytic domain amino acid 1-520) (Carna Bioscience), 40 nM N-terminally HIS-tagged MKK4 K131M substrate, and 30 μM ATP in kinase reaction buffer (50 mM HEPES, pH 7.5, 0.01% Triton X-100, 0.01% Bovine γ-Globulins, 2 mM DTT, 10 mM MgCl2 and 1 mM EGTA), and testing compound 1:3 serial diluted starting at 20 uM were incubated at ambient temperature for 60 minutes in 384 well OptiPlate (Perkin Elmer). To quench kinase reactions and detect phosphorylated MKK4, 15 μL of TR-FRET antibody mixture containing 2 nM anti-phosphorylated MKK4 labeled with Europium cryptate (Cisbio) and 23 nM anti-HIS labeled with D2 (Cisbio) in detection buffer (25 mM Tris pH 7.5, 100 mM NaCl, 100 mM EDTA, 0.01% Tween-20, and 200 mM KF) was added to the reaction mixture. The detection mixture was incubated for 3 hours at ambient temperature and the TR-FRET was detected with an EnVision multilabel plate reader (Perkin-Elmer) using the LANCE/DELFIA Dual Enh label from Perkin-Elmer (excitation filter: UV2 (TRF) 320 and emission filters: APC 665 and Europium 615).

Row | Ki | SMILES
1 | 11.9 nM | N#Cc1ccnc(Nc2cc(C3CCOCC3)cc(N3CC(F)C3)n2)c1 [Example 86, 2-[6-(3-Fluoro-azetidin-1-yl)-4-(tetrahydro-pyran-4-yl)-pyridin-2-ylamino]-isonicotinonitrile]
2 | 510 nM | CC(=O)N1CCC(c2ccnc(Nc3cc(C#N)ccn3)c2)CC1 [Example 129, 2-(1′-Acetyl-1′,2′,3′,4′,5′,6′-hexahydro-[4,4′]bipyridinyl-2-ylamino)-isonicotinonitrile]
3 | 22 nM | CC(=O)N1CCC(c2cc(Nc3cc(C4CC4)ccn3)nc(N3CCC[C@H]3C)c2)CC1 [Example 142, 1-[6′-(4-Cyclopropyl-pyridin-2-ylamino)-2′-((R)-2-methyl-pyrrolidin-1-yl)-3,4,5,6-tetrahydro-2H-[4,4′]bipyridinyl-1-yl]-ethanone]
4 | 3.1 nM | N#Cc1ccnc(Nc2cc(C3CCOCC3)cc(Cl)n2)c1 [Example 78, 2-[6-Chloro-4-(tetrahydro-pyran-4-yl)-pyridin-2-ylamino]-isonicotinonitrile]
5 | 25 nM | Cc1ccnc(Nc2cc(C3CCN(S(C)(=O)=O)CC3)cc(N3CCC[C@H]3C)n2)c1 [Example 136, [1′-Methanesulfonyl-6-((R)-2-methyl-pyrrolidin-1-yl)-1′,2′,3′,4′,5′,6′-hexahydro-[4,4′]bipyridinyl-2-yl]-(4-methyl-pyridin-2-yl)-amine]
6 | 0.09 nM | CC1CCCN1c1cc(C2CCN(CC3CCOCC3)C2)cc(Nc2cc(C#N)ccn2)n1 (stereo not shown) [Example 115, 2-{6-(2-Methyl-pyrrolidin-1-yl)-4-[1-(tetrahydro-pyran-4-ylmethyl)-pyrrolidin-3-yl]-pyridin-2-ylamino}-isonicotinonitrile]
7 | 170 nM | CC(=O)N1CCC(c2cc(C)nc(Nc3cc(C(F)F)ccn3)c2)CC1 [Example 62, 1-[2′-(4-Difluoromethyl-pyridin-2-ylamino)-6′-methyl-3,4,5,6-tetrahydro-2H-[4,4′]bipyridinyl-1-yl]-ethanone]
8 | 28 nM | CCc1cc(C2CCN(C(C)=O)CC2)cc(Nc2cc(C#N)ccn2)n1 [Example 60, 2-(1′-Acetyl-6-ethyl-1′,2′,3′,4′,5′,6′-hexahydro-[4,4′]bipyridinyl-2-ylamino)-isonicotinonitrile]
9 | 0.9 nM | N#Cc1ccnc(Nc2cc(C3CCN(C4COC4)CC3)cc(N3CCC4CC43)n2)c1 (stereo not shown) [Example 99, 2-[6-(2-Aza-bicyclo[3.1.0]hex-2-yl)-1′-oxetan-3-yl-1′,2′,3′,4′,5′,6′-hexahydro-[4,4′]bipyridinyl-2-ylamino]-isonicotinonitrile]
10 | 0.2 nM | C[C@@H]1CCCN1c1cc(C2(C#N)CCOCC2)cc(Nc2cc(C#N)ccn2)n1 [Example 74, 2-[4-(4-Cyano-tetrahydro-pyran-4-yl)-6-((R)-2-methyl-pyrrolidin-1-yl)-pyridin-2-ylamino]-isonicotinonitrile]
11 | 2.5 nM | N#Cc1ccnc(Nc2cc(C3(C#N)CCNCC3)cc(N3CC(F)(F)C3)n2)c1 [Example 37, 2′-(4-Cyano-pyridin-2-ylamino)-6′-(3,3-difluoro-azetidin-1-yl)-2,3,5,6-tetrahydro-1H-[4,4′]bipyridinyl-4-carbonitrile]
12 | 1 nM | FC(F)c1ccnc(Nc2cc(C3CCN(C4COC4)CC3)cc(N3CC4CC4C3)n2)c1 (stereo not shown) [Example 50, [6-(3-Aza-bicyclo[3.1.0]hex-3-yl)-1′-oxetan-3-yl-1′,2′,3′,4′,5′,6′-hexahydro-[4,4′]bipyridinyl-2-yl]-(4-difluoromethyl-pyridin-2-yl)-amine]
13 | 4.1 nM | N#Cc1ccnc(Nc2cc(C3CCN(C4COC4)CC3)cc(N3CC4(CCC4(F)F)C3)n2)c1 [Example 94, 2-[6-(5,5-Difluoro-2-aza-spiro[3.3]hept-2-yl)-1′-oxetan-3-yl-1′,2′,3′,4′,5′,6′-hexahydro-[4,4′]bipyridinyl-2-ylamino]-isonicotinonitrile]
14 | 0.8 nM | N#Cc1ccnc(Nc2cc(C3(C#N)CCN(C4COC4)CC3)cc(N3CC4CC4C3)n2)c1 (stereo not shown) [Example 35, 6′-(3-Aza-bicyclo[3.1.0]hex-3-yl)-2′-(4-cyano-pyridin-2-ylamino)-1-oxetan-3-yl-2,3,5,6-tetrahydro-1H-[4,4′]bipyridinyl-4-carbonitrile]
15 | 16 nM | N#Cc1ccnc(Nc2cc(C3CCOCC3)cc(N3CC4(CCC4(F)F)C3)n2)c1 [Example 103, 2-[6-(5,5-Difluoro-2-aza-spiro[3.3]hept-2-yl)-4-(tetrahydro-pyran-4-yl)-pyridin-2-ylamino]-isonicotinonitrile]
16 | 0.17 nM | C[C@@H]1CCCN1c1cc(C2CCN(CCO)CC2)cc(Nc2cc(C(F)(F)F)ccn2)n1 [Example 140, 2-[6′-((R)-2-Methyl-pyrrolidin-1-yl)-2′-(4-trifluoromethyl-pyridin-2-ylamino)-3,4,5,6-tetrahydro-2H-[4,4′]bipyridinyl-1-yl]-ethanol]
17 | 6.6 nM | C[C@@H]1CCCN1c1cc(C2CCN(S(C)(=O)=O)CC2)cc(Nc2cc(C(F)(F)F)ccn2)n1 [Example 139, [1′-Methanesulfonyl-6-((R)-2-methyl-pyrrolidin-1-yl)-1′,2′,3′,4′,5′,6′-hexahydro-[4,4′]bipyridinyl-2-yl]-(4-trifluoromethyl-pyridin-2-yl)-amine]
18 | 140 nM | N#Cc1ccnc(Nc2cc(C3CN(C4COC4)C3)cc(Cl)n2)c1 [Example 24, 2-[6-Chloro-4-(1-oxetan-3-yl-azetidin-3-yl)-pyridin-2-ylamino]-isonicotinonitrile]
19 | 110 nM | FC(F)c1ccnc(Nc2cc(C3CN(CC(F)(F)F)C3)cc(Cl)n2)c1 [Example 20, {6-Chloro-4-[1-(2,2,2-trifluoro-ethyl)-azetidin-3-yl]-pyridin-2-yl}-(4-difluoromethyl-pyridin-2-yl)-amine]
20 | 64 nM | CCc1cc(C2CCN(C(C)=O)CC2)cc(Nc2cc(C(F)F)ccn2)n1 [Example 58, 1-[2′-(4-Difluoromethyl-pyridin-2-ylamino)-6′-ethyl-3,4,5,6-tetrahydro-2H-[4,4′]bipyridinyl-1-yl]-ethanone]
21 | 0.17 nM | C[C@@H]1CCCN1c1cc(C2CCN(CCF)CC2)cc(Nc2cc(C(F)(F)F)ccn2)n1 [Example 137, [1′-(2-Fluoro-ethyl)-6-((R)-2-methyl-pyrrolidin-1-yl)-1′,2′,3′,4′,5′,6′-hexahydro-[4,4′]bipyridinyl-2-yl]-(4-trifluoromethyl-pyridin-2-yl)-amine]
22 | 21 nM | COC1CN(c2cc(C3(C#N)CCOCC3)cc(Nc3cc(C(F)F)ccn3)n2)C1 [Example 54, 4-[2-(4-Difluoromethyl-pyridin-2-ylamino)-6-(3-methoxy-azetidin-1-yl)-pyridin-4-yl]-tetrahydro-pyran-4-carbonitrile]
23 | 18 nM | CCc1cc(C2CCN(C3COC3)CC2)cc(Nc2cc(C#N)ccn2)n1 [Example 29, 2-(6-Ethyl-1′-oxetan-3-yl-1′,2′,3′,4′,5′,6′-hexahydro-[4,4′]bipyridinyl-2-ylamino)-isonicotinonitrile]
24 | 0.88 nM | N#Cc1ccnc(Nc2cc(C3CCOCC3)cc(N3CCC(F)(F)C3)n2)c1 [Example 130, 2-[6-(3,3-Difluoro-pyrrolidin-1-yl)-4-(tetrahydro-pyran-4-yl)-pyridin-2-ylamino]-isonicotinonitrile]
25 | 8.9 nM | N#CC1(c2cc(Nc3cc(C(F)F)ccn3)nc(N3CC(F)C3)c2)CCOCC1 [Example 55, 4-[2-(4-Difluoromethyl-pyridin-2-ylamino)-6-(3-fluoro-azetidin-1-yl)-pyridin-4-yl]-tetrahydro-pyran-4-carbonitrile]
